The subject of experiment [1] is Lactobacillus plantarum TSP-Lp1. Briefly: Antibiotic susceptibility by disk diffusion method. It counts as cell-based. The following applies: for zone of inhibition at 30 µg/disc: TSPLP1, 30 μg; for zone of inhibition at 5 µg/disc: TSPLP1, 5 μg; for zone of inhibition at 10 µg/disc: TSPLP1, 10 μg. As for the experimental part: (§1) In order to ascertain the sensitivity of the thermostable strains in the food products towards antibiotics, Antibiotic susceptibility profile for Lactobacillus acidophilus is created by disk diffusion method. The susceptibility criteria used is established by Charteris et al. The Lactobacillus acidophilus is grown in Man Rogosa Sharpe Agar (MRSA).
The same set of study as the previous example is conducted using Lactobacillus plantarum strain of the present disclosure and the results for the study are depicted in Table No. 13 as below. The susceptibility criteria used is established by Charteris et al. The Lactobacillus acidophilus is grown in Man Rogosa Sharpe Agar, […]
On the technique in general: Agar diffusion results depend on both activity and mobility in agar.

For experiment [2], the system named is Lactobacillus acidophilus TSP-La1. The experiment in a line: Antibiotic susceptibility by disk diffusion method. The following applies: for zone of inhibition at 30 µg/disc: TSPLA1, 30 μg; for zone of inhibition at 5 µg/disc: TSPLA1, 5 μg; for zone of inhibition at 10 µg/disc: TSPLA1, 10 μg. The format is cell-based. As for the experimental part: as §1
67.15 grams is suspended in 1000 ml distilled water and heated to boiling to dissolve the medium completely. It is sterilized by autoclaving at 15 lbs pressure (121° C.) for 20 minutes, mixed well and poured into sterile Petri plates.
The concentration of the tested antibiotics has been included depending upon their minimum inhibitory concentrations.

The mark [3] stands for this setting: Lactiplantibacillus plantarum, read-out: MIC Results.
The mark [4] stands for this setting: Lactobacillus acidophilus, read-out: MIC Results.

Results on 14 compounds are retold here after patent publication US10058577B2, “Thermo-stable strains, products and methods thereof” (TRIPHASE PHARMACEUTICALS PVT. LTD., priority 2014, dated 2018).

For `O=C(N[C@H](CO)[C@H](O)c1ccc([N+](=O)[O-])cc1)C(Cl)Cl` [Chloramphenicol], the Resistant/Sensitive entry in experiment [1] (30 μg) and in experiment [2] (30 μg) was “Sensitive” in each case. For the same compound, the zone of inhibition at 30 µg/disc in experiment [1] (setting [3]) is 31 mm; in experiment [2] (setting [4]), 29 mm.

Regarding `COc1cccc(OC)c1C(=O)N[C@@H]1C(=O)N2[C@@H]1SC(C)(C)[C@@H]2C(=O)O` [Methicillin], the Resistant/Sensitive entry in experiment [1] (5 μg) and in experiment [2] (5 μg) was “Sensitive” throughout. Besides, the figures for the zone of inhibition at 5 µg/disc in experiment [1] (setting [3]) and in experiment [2] (setting [4]) were 15 mm and 30 mm, respectively.

On to `O=C(O)c1cn(C2CC2)c2cc(N3CCNCC3)c(F)cc2c1=O` [Ciprofloxacin], for which the Resistant/Sensitive entry in experiment [1] (10 μg) is “Sensitive”. Further, in experiment [1] (setting [3]), the zone of inhibition at 10 µg/disc was 31 mm.

Gentamycin: in experiment [1] (10 μg), the “MIC Results” value is 8 mm and the Resistant/Sensitive entry is listed as “Resistant”. In experiment [2] (10 μg), the “MIC Results” value turned out to be 10 mm and the Resistant/Sensitive result was “Resistant”.

Turning to `CC1(C)S[C@@H]2[C@H](NC(=O)[C@H](N)c3ccc(O)cc3)C(=O)N2[C@H]1C(=O)O` [Amoxicillin], the Resistant/Sensitive result in experiment [1] (30 μg) and in experiment [2] (30 μg) was “Sensitive” in each case. The zone of inhibition at 30 µg/disc in experiment [1] (setting [3]) was 39 mm; in experiment [2] (setting [4]), 32 mm.

As to `[H]/N=C(/N)N[C@H]1[C@H](O)[C@@H](O)[C@H](O[C@@H]2O[C@@H](C)[C@](O)(C=O)[C@H]2O[C@@H]2O[C@@H](CO)[C@H](O)[C@@H](O)[C@@H]2NC)[C@@H](N/C(N)=N\[H])[C@@H]1O` [Streptomycin], the Resistant/Sensitive result in experiment [1] (10 μg) and in experiment [2] (10 μg) was “Sensitive” in each case. In addition, the zone of inhibition at 10 µg/disc in experiment [1] (setting [3]) is 20 mm; in experiment [2] (setting [4]) it was 18 mm.

Take `CC[C@H]1OC(=O)[C@H](C)[C@@H](O[C@H]2C[C@@](C)(OC)[C@@H](O)[C@H](C)O2)[C@H](C)[C@@H](O[C@@H]2O[C@H](C)C[C@H](N(C)C)[C@H]2O)[C@](C)(O)C[C@@H](C)C(=O)[C@H](C)[C@@H](O)[C@]1(C)O` [Erythromycin]: the Resistant/Sensitive entry was “Sensitive” in experiment [1] (15 μg) and “Resistant” in experiment [2] (15 μg). The zone of inhibition at 15 µg/disc in experiment [1] (Lactiplantibacillus plantarum, TSPLP1, 15 μg, read-out: MIC Results) amounted to 14 mm; in experiment [2] (Lactobacillus acidophilus, TSPLA1, 15 μg, read-out: MIC Results) it was 14 mm.

For the compound `CC(=O)OCC1=C(C(=O)O)N2C(=O)[C@@H](NC(=O)Cc3cccs3)[C@H]2SC1` [Cephalothin], the Resistant/Sensitive result in experiment [1] (30 μg) and in experiment [2] (30 μg) was “Sensitive” each time. For the same compound, the zone of inhibition at 30 µg/disc amounted to 23 mm in experiment [1] (setting [3]) and 25 mm in experiment [2] (setting [4]).

For `Cc1onc(-c2ccccc2)c1C(=O)N[C@@H]1C(=O)N2[C@@H]1SC(C)(C)[C@@H]2C(=O)O` [Oxacillin], in experiment [1] (1 μg), the “MIC Results” value is listed as “No Zone” and the Resistant/Sensitive entry is “Resistant”. Besides, in experiment [2] (1 μg), the “MIC Results” value is “No Zone” and the Resistant/Sensitive entry is on record as “Resistant”.

Take `CN[C@H](CC(C)C)C(=O)N[C@H]1C(=O)N[C@@H](CC(N)=O)C(=O)N[C@H]2C(=O)N[C@H]3C(=O)N[C@H](C(=O)N[C@H](C(=O)O)c4cc(O)cc(O)c4-c4cc3ccc4O)[C@H](O)c3ccc(c(Cl)c3)Oc3cc2cc(c3O[C@@H]2O[C@H](CO)[C@@H](O)[C@H](O)[C@H]2O[C@H]2C[C@](C)(N)[C@H](O)[C@H](C)O2)Oc2ccc(cc2Cl)[C@H]1O` [Vancomycin]: in experiment [1] (30 μg), the “MIC Results” value is reported as “No Zone” and the Resistant/Sensitive entry is listed as “Resistant”. Moreover, in experiment [2] (30 μg), the “MIC Results” value was “No Zone” and the Resistant/Sensitive entry was “Resistant”.

With `CO[C@H]1/C=C/O[C@@]2(C)Oc3c(C)c(O)c4c(O)c(c(/C=N/N5CCN(C)CC5)c(O)c4c3C2=O)NC(=O)/C(C)=C\C=C\[C@H](C)[C@H](O)[C@@H](C)[C@@H](O)[C@@H](C)[C@H](OC(C)=O)[C@@H]1C` [Rifampicin], the zone of inhibition at 5 µg/disc was 43 mm in experiment [1] (setting [3]) and 35 mm in experiment [2] (setting [4]).

In the case of `CN(C)[C@@H]1C(O)=C(C(N)=O)C(=O)[C@@]2(O)C(O)=C3C(=O)c4c(O)cccc4[C@@](C)(O)[C@H]3C[C@@H]12` [Tetracycline], the zone of inhibition at 30 µg/disc in experiment [1] (setting [3]) was 14 mm; in experiment [2] (setting [4]), 11 mm.

As to `CC1(C)S[C@@H]2[C@H](NC(=O)[C@H](N)c3ccccc3)C(=O)N2[C@H]1C(=O)O` [Ampicillin], the “MIC Results” value in experiment [1] (10 μg) was “No Zone”. Also, the Resistant/Sensitive entry in experiment [1] (10 μg) and in experiment [2] (10 μg) was “Resistant” in each case. Further, in experiment [2] (setting [4]), the zone of inhibition at 10 µg/disc turned out to be 10 mm.

As for `CCC[C@@H]1C[C@@H](C(=O)N[C@@H]([C@H]2O[C@H](SC)[C@H](O)[C@@H](O)[C@H]2O)[C@H](C)Cl)N(C)C1` [Clindamycin], the zone of inhibition at 2 µg/disc in experiment [1] (Lactiplantibacillus plantarum, TSPLP1, 2 μg, read-out: MIC Results) was 34 mm; in experiment [2] (Lactobacillus acidophilus, TSPLA1, 2 μg, read-out: MIC Results), 31 mm.
